Assay results from the NIST ThermoML archive (doi:10.1021/je0501843).

Assay: molar heat capacity at constant volume; wn = mass fraction of the nth substance listed
Settings: Fluid (supercritical or subcritical phases), Vacuum adiabatic calorimetry, w1 = 0.5001

FC(F)C(F)(F)F [pentafluoroethane] + FCF
Settings | molar heat capacity at constant volume [J/K/mol]
363 K, 13894 kPa | 70.07
364 K, 6970 kPa | 80.93
364 K, 7223 kPa | 79.29
364 K, 7494 kPa | 80.29
364 K, 7828 kPa | 75.98
364 K, 10192 kPa | 72.66
364 K, 14207 kPa | 69.59
365 K, 7077 kPa | 80.93
365 K, 7344 kPa | 79.26
365 K, 7632 kPa | 79.75
365 K, 7982 kPa | 75.67
365 K, 10427 kPa | 72.54
365 K, 14520 kPa | 69.04
366 K, 7184 kPa | 80.58
366 K, 7465 kPa | 80.45
366 K, 7771 kPa | 80.4
366 K, 8137 kPa | 76.08
366 K, 10664 kPa | 73.17
366 K, 14835 kPa | 69.94
367 K, 7291 kPa | 80.32
367 K, 7587 kPa | 79.46
367 K, 7907 kPa | 79.31
367 K, 8294 kPa | 74.79
367 K, 10900 kPa | 72.03
367 K, 15148 kPa | 69.1
368 K, 7397 kPa | 79.17
368 K, 7708 kPa | 77.58
368 K, 8044 kPa | 77.88
368 K, 8449 kPa | 74.12
368 K, 11133 kPa | 71.25
368 K, 15462 kPa | 68.32
369 K, 7504 kPa | 79.62
369 K, 7831 kPa | 78.35
369 K, 8183 kPa | 78.65
369 K, 8605 kPa | 76.18
369 K, 11369 kPa | 72.83
369 K, 15777 kPa | 69.74
370 K, 7612 kPa | 79.45
370 K, 7953 kPa | 77.86
370 K, 8323 kPa | 77.55
370 K, 8762 kPa | 76.14
370 K, 11608 kPa | 72.92
370 K, 16094 kPa | 69.84
371 K, 7719 kPa | 78.97
371 K, 8075 kPa | 77.56
371 K, 8460 kPa | 76.45
371 K, 8917 kPa | 74.86
371 K, 11844 kPa | 72.52
371 K, 16410 kPa | 69.31
372 K, 7825 kPa | 78.44
372 K, 8198 kPa | 77.29
372 K, 8601 kPa | 75.95
372 K, 9073 kPa | 74.57
372 K, 12081 kPa | 71.78
372 K, 16724 kPa | 69.08
373 K, 7931 kPa | 77.94
373 K, 8321 kPa | 76.93
373 K, 8740 kPa | 76.42
373 K, 9230 kPa | 74.03
373 K, 12318 kPa | 72.32
373 K, 17037 kPa | 69.04
374 K, 8039 kPa | 79.02
374 K, 8445 kPa | 77.8
374 K, 8878 kPa | 77.52
374 K, 9389 kPa | 74.39
374 K, 12556 kPa | 73.35
374 K, 17355 kPa | 69.94
375 K, 8147 kPa | 78.2
375 K, 8567 kPa | 75.61
375 K, 9016 kPa | 76.25
375 K, 9544 kPa | 73.41
375 K, 12795 kPa | 71.55
375 K, 17669 kPa | 69.58
376 K, 8254 kPa | 77.5
376 K, 8690 kPa | 75.69
376 K, 9155 kPa | 75.06
376 K, 9701 kPa | 73.09
376 K, 13033 kPa | 71.53
376 K, 17984 kPa | 69.16
377 K, 8362 kPa | 78.12
377 K, 8813 kPa | 76.87
377 K, 9295 kPa | 76.67
377 K, 9858 kPa | 74.31
377 K, 13272 kPa | 72.67
377 K, 18301 kPa | 69.67
378 K, 8469 kPa | 77.78
378 K, 8937 kPa | 76.5
378 K, 9437 kPa | 77.01
378 K, 10018 kPa | 74.83
378 K, 13511 kPa | 71.98
378 K, 18619 kPa | 69.86
379 K, 8575 kPa | 76.76
379 K, 9060 kPa | 75.82
379 K, 9576 kPa | 76.42
379 K, 10174 kPa | 74.57
379 K, 13747 kPa | 71.87
379 K, 18935 kPa | 70.14
380 K, 8683 kPa | 76.61
380 K, 9183 kPa | 75.69
380 K, 9715 kPa | 75.6
380 K, 10331 kPa | 73.35
380 K, 13988 kPa | 71.55
381 K, 8790 kPa | 77.44
381 K, 9306 kPa | 77.28
381 K, 9856 kPa | 75.26
381 K, 10492 kPa | 73.9
381 K, 14227 kPa | 72.04
382 K, 8897 kPa | 78.41
382 K, 9432 kPa | 76.92
382 K, 9996 kPa | 76.48
382 K, 10651 kPa | 74.52
382 K, 14466 kPa | 72.98
383 K, 9005 kPa | 77.33
383 K, 9553 kPa | 75.97
383 K, 10136 kPa | 75.35
383 K, 10808 kPa | 74.44
383 K, 14706 kPa | 72.4
384 K, 9112 kPa | 76.6
384 K, 9679 kPa | 76.51
384 K, 10277 kPa | 75.34
384 K, 10967 kPa | 74.6
384 K, 14944 kPa | 71.93
385 K, 9219 kPa | 77.25
385 K, 9804 kPa | 75.82
385 K, 10418 kPa | 76.16
385 K, 11125 kPa | 74.07
385 K, 15188 kPa | 72.26
386 K, 9326 kPa | 78.28
386 K, 9929 kPa | 76.35
386 K, 10558 kPa | 76.6
386 K, 11283 kPa | 75.16
386 K, 15426 kPa | 73.47
387 K, 9434 kPa | 77.16
387 K, 10051 kPa | 76.61
387 K, 10699 kPa | 76.14
387 K, 11442 kPa | 74.89
387 K, 15666 kPa | 72.66
388 K, 9540 kPa | 76.32
388 K, 10174 kPa | 74.86
388 K, 10840 kPa | 75.57
388 K, 11602 kPa | 73.37
388 K, 15904 kPa | 71.19
389 K, 9649 kPa | 77.31
389 K, 10296 kPa | 75.87
389 K, 10980 kPa | 76.71
389 K, 11761 kPa | 73.84
389 K, 16147 kPa | 71.61
390 K, 9756 kPa | 77.57
390 K, 10421 kPa | 77.3
390 K, 11124 kPa | 76.88
390 K, 11922 kPa | 75.02
390 K, 16388 kPa | 72.19
391 K, 9862 kPa | 77.21
391 K, 10547 kPa | 76.53
391 K, 11263 kPa | 76.5
391 K, 12081 kPa | 74.96
391 K, 16627 kPa | 71.79
392 K, 9969 kPa | 77.4
392 K, 10670 kPa | 75.59
392 K, 11403 kPa | 75.77
392 K, 12239 kPa | 73.58
392 K, 16868 kPa | 71.21
393 K, 10077 kPa | 78.13
393 K, 10795 kPa | 76.57
393 K, 11546 kPa | 75.66
393 K, 12400 kPa | 74.26
393 K, 17110 kPa | 71.47
394 K, 10185 kPa | 78.09
394 K, 10920 kPa | 77.19
394 K, 11688 kPa | 76.6
394 K, 12560 kPa | 75.24
394 K, 17351 kPa | 71.82
395 K, 10292 kPa | 77.54
395 K, 11045 kPa | 76.74
395 K, 11829 kPa | 75.92
395 K, 12720 kPa | 73.89
395 K, 17590 kPa | 71.67
396 K, 10400 kPa | 77.68
396 K, 11168 kPa | 76.85
396 K, 11972 kPa | 76.16
396 K, 12880 kPa | 73.78
396 K, 17831 kPa | 71.16
397 K, 10508 kPa | 78.41
397 K, 11292 kPa | 76.06
397 K, 12113 kPa | 76.4
397 K, 13040 kPa | 74.36
397 K, 18073 kPa | 71.18
398 K, 10616 kPa | 78.25
398 K, 11415 kPa | 76.66
398 K, 12256 kPa | 75.92
398 K, 13199 kPa | 74.81
398 K, 18315 kPa | 72.43
399 K, 10723 kPa | 77.16
399 K, 11538 kPa | 76.8
399 K, 12395 kPa | 76.53
399 K, 13361 kPa | 74.08
399 K, 18556 kPa | 72.11
